Values quoted from earlier work as cited in EP3231454B1, “BONE CEMENT COMPRISING MICROENCAPSULATED ANTIMICROBIAL” (UNIVERSIDAD PONTIFICIA COMILLAS, priority 2016, dated 2017).

Settings: addition of 1 g of vancomycin to bone cement

CN[C@H](CC(C)C)C(=O)N[C@H]1C(=O)N[C@@H](CC(N)=O)C(=O)N[C@H]2C(=O)N[C@H]3C(=O)N[C@H](C(=O)N[C@H](C(=O)O)c4cc(O)cc(O)c4-c4cc3ccc4O)[C@H](O)c3ccc(c(Cl)c3)Oc3cc2cc(c3O[C@@H]2O[C@H](CO)[C@@H](O)[C@H](O)[C@H]2O[C@H]2C[C@](C)(N)[C@H](O)[C@H](C)O2)Oc2ccc(cc2Cl)[C@H]1O [vancomycin]
reduction in bending resistance: more than 20%
